row,Compound,melting point [°C]
1,CC(=O)C1C(=O)CC(CCS(=O)(=O)c2ccc(C(F)(F)F)cc2)CC1=O (centres undefined),136
2,O=C(NNC(c1ccccc1)(c1ccccc1)c1ccccc1)c1ccccc1,130 to 131
3,CCCCCCCCCC(O)C#CC(=O)O (centres undefined),65 to 66
4,O=C(Nc1cccnc1)N1CCN(c2nccc(-c3ccc(F)cc3)n2)CC1,233 to 234
5,CC(C(=O)c1ccc(O)cc1)N1CCC(O)(c2ccccc2)CC1 (centres undefined),95 to 97
6,CCCCCCCCCCCCCCCCCC1CC(OC(=O)c2ccccc2)C(CC)C(=O)O1 (racemic),64.5 to 66
7,Nc1ccc(-c2ccc(=O)[nH]n2)cc1Br,266 to 267
8,CCOC(=O)c1oc2ccc(Cl)cc2c1C,80 to 82
9,Cc1cnc(NC(=O)c2cc(Oc3ccc(C(=O)N4CCC4)cc3F)cc(O[C@@H](C)CO)c2)cn1,172
10,CCc1nc(-c2ccco2)c2ncn(Cc3ccc(OC)cc3)c2n1,119 to 120
11,COc1ccc(F)cc1OCC=O,92.5 to 95
12,Cc1cc(C)c2nc(NCCC(N)=O)n(Cc3nc(C)ccc3O)c2c1,229
13,Fc1ccc(C2CCC3(CC2)OCCO3)cc1,51 to 53
14,Cc1c(CC(=O)O)oc2ccccc12,108
15,COCCN(C1CC(C)(C)Oc2ccc(O)cc21)S(C)(=O)=O (centres undefined),115 to 117
16,COc1cc2nc(N3CCN(C(=O)C4=CCCC4)CC3)nc(N)c2cc1OC,256 to 258
17,C=CCN1C2CCC3C1CCC2N3C(c1ccc(C(=O)N2CCCC2)cc1)c1cccc(O)c1 (centres undefined),140 to 142
18,C/C(=C\c1ccc(OCc2nc(-c3ccc(C(F)(F)F)cc3)oc2C)cc1)Cn1oc(=O)[nH]c1=O,90 to 91
19,O=C1NC(=O)C(Cc2ccc(N3CCC(NC[C@H](O)c4csc(C(F)(F)F)n4)CC3)cc2)S1 (some centres undefined),108 to 113
20,OCCCNC(Cn1ccnc1)c1ccc(Cl)cc1Cl (centres undefined),77 to 79
21,Cc1cn(CC(=O)N(CCNC(=O)OC(C)(C)C)CC(=O)Oc2c(F)c(F)c(F)c(F)c2F)c(=O)[nH]c1=O,174 to 176
22,O=C(Cl)c1cc(Oc2ccc(C(F)(F)F)cc2Cl)ccc1[N+](=O)[O-],118 to 120
23,CCc1c(O)c(=O)ccn1CCOC(=O)C(C)(C)C,113 to 115
24,CCSc1c(C#N)nn(-c2c(Cl)cc(C(F)(F)F)cc2Cl)c1Br,134 to 140
25,CC1(C)NC(=O)N(c2ccc([N+](=O)[O-])c(Cl)c2)C1=O,144 to 145

row,Compound,melting point [°C]
1,CSC1=NC2=NC3=C(CN2N1)C(Cc1ccccc1)CNC3=O (centres undefined),232 to 234
2,O=C(NCC1CCCCCC1)c1cc(-c2ccc(Cl)c(C(=O)O)n2)ccc1Cl,189 to 190
3,CCCn1nc(-c2ccc(OC(=O)CC(C)(C)C)c(F)c2)c2cccc(Cl)c21,58 to 59
4,OCCC1c2ccccc2-c2ccccc21,97
5,CCCCCCCCCCCCCCCCCCc1ccc(S(=O)(=O)Nc2nncs2)cc1,116 to 117
6,CSc1ccc(-c2cnn(-c3ccc(F)cc3)c(=O)c2OC(C)C)cc1,135 to 137
7,CN1CCCC1CNC(=O)c1ccc(S(=O)(=O)N(C)C)c2c1OCCO2 (centres undefined),165 to 166
8,CC(C)CCOc1ccc(S(=O)(=O)C2(C(=O)O)CCN(Cc3ccccc3)CC2)cc1,106
9,Cc1cc(C)c2cc(-c3ccccc3)c(=O)n(CCN(C)C)c2n1,135 to 137
10,CCCCCCCCCCCCN(CCCCCCCCCCCC)c1ccccc1C1=c2ccc(=C3C(=O)c4ccccc4C3=O)cc2OC1=O,155
11,COC(=O)C(=O)CC(=O)c1ccccn1,86 to 87
12,CC(=O)n1ccc(O)n1,191
13,CC(C)CC(NC(=O)Cc1ccc(NC(=O)Nc2ccccn2)cc1)c1ncc(C(C)C(=O)O)s1 (centres undefined),173 to 175
14,Cc1cnc(N2CCN(c3ccc([N+](=O)[O-])cc3)CC2)n1C,204 to 205
15,O=C1CCC(=NNc2ccc(I)cc2)c2ncccc2N1,204 to 205
16,COc1ccc(COC(=O)n2c(S(=O)Cc3ccc(C)cn3)nc3cscc32)cc1 (centres undefined),119 to 120
17,O=C1CCCC2=C1OC(CC(=O)c1ccccc1)(c1ccccc1)C=C2c1ccccc1 (centres undefined),178 to 179
18,O=C(Nc1ccc(Sc2ccncc2)cc1)c1ccc([N+](=O)[O-])cc1,295 to 298
19,CCCCCCCCC#CCC#CCC#CCCCC(=O)NCC(O)CO (centres undefined),87
20,O=C1C2=C(SCCO2)C(=O)N1c1ccc2cccnc2n1,200
21,COc1cc(C(OC(C)=O)C(COC(C)=O)[N+](=O)[O-])ccc1OC(C)=O (centres undefined),97 to 100
22,Cc1ccc(-c2cccc(C(=O)O)n2)cc1C(=O)NCC12CC3CC(CC(C3)C1)C2,227
23,Cc1cc(C#N)c2c(c1C)C(=O)CC2,160 to 163
24,CCOC(=O)C1=COc2cc(C(C)(C)C)c(OC(C)=O)cc2O1,144
25,CN1C(=O)CC[C@]2(C)c3ccc(-c4c(F)cccc4F)cc3CC[C@@H]12,125 to 130

row,Compound,melting point [°C]
1,O=C(c1cccnc1)n1nc(-c2ccc(Br)cc2)cc1C(F)(F)F,150 to 152
2,O=C1Cc2ccccc2C(c2c(F)cccc2Cl)N1 (centres undefined),249 to 252
3,CCOC(=O)C(CC)C(=O)N1NCCCC1C(=O)OC(C)(C)C (centres undefined),78 to 79
4,O=C(Cn1c(-c2ccccc2)ccc(NC(=O)OCc2ccccc2)c1=O)NC(Cc1ccccc1)C(=O)C(F)(F)F (centres undefined),178 to 181
5,CCc1nc2c(cnn2CC)c(NC2CCOCC2)c1CNC(=O)c1cccc(C(=O)NCc2ccc(C)c(-c3cccc(CN4CC(C)NC(C)C4)c3)c2)c1 (centres undefined),109 to 112
6,CC12CC(=O)C3C(CCC4CC(=O)CCC43C)C1CCC2C(=O)CO (centres undefined),164 to 170
7,OCC1OC(n2c(Cl)c(-c3ccsc3)c3cc(Cl)c(Cl)cc32)C(O)C1O (centres undefined),152 to 153
8,CC1=CC(=C(C#N)C#N)C=C(C)S1(=O)=O,176 to 177
9,O=C(Nc1ccccn1)c1cnc2c(c1O)CN(C(=O)OCc1ccccc1)CC2,272 to 274
10,CCOc1ccc2nc(NC(=O)N(C)C)sc2c1,183 to 186
11,COC(=O)c1[nH]c2c(C)ccc(C)c2c1S(C)(=O)=O,163 to 164
12,COc1ccc(C(=O)c2ccon2)cc1,71 to 73
13,C=C(Cl)C[C@H](CC(=O)O)C(=O)N[C@@H](CC1CCCCC1)[C@@H](O)[C@@H](O)CC(C)C,193 to 196
14,COc1cc(OCc2ccc3c(c2)C(C)(C)CCC3(C)C)ccc1C(=O)OCc1ccccc1,112 to 113
15,COc1ccc(C(=O)c2cccn2C)cc1,66 to 68
16,CCOC(=O)c1ccc(NC(=O)c2ccc3c(c2)CCC(C)(C)C(=O)N3C)cc1,169 to 170
17,O=C(O)Cc1ccc2c(c1)CC(CNS(=O)(=O)c1ccccc1)C2 (centres undefined),140 to 141
18,COc1cc(C(O)C(C)C)cc2c1OC(C)(C)C2 (centres undefined),113 to 116
19,C=C(C)Cn1c(S)nc2c(cnn2C)c1=O,158 to 160
20,CC(C)(Cc1ccccc1)Oc1ccc([N+](=O)[O-])cc1,78 to 79
21,Cc1cc(F)ccc1-c1nc(NC2CCOCC2)nc2c1ccc(=O)n2-c1c(F)cccc1F,231 to 232
22,CC(C)(C)OC(=O)N1C(=O)C(C2=COc3ccccc3O2)=C(c2cn(C(=O)OC(C)(C)C)c3ccc(OCc4ccccc4)cc23)C1=O,76
23,Cn1c(NN)nc2ccc(O)cc2c1=O,> 300
24,COc1cc2c(CCN3CCN(c4cccc(Cl)c4C)CC3)nn(Cc3c[nH]cn3)c2cc1OC,143 to 144
25,COc1cc(OC)c2c(=O)[nH]c(-c3ccc(OC)c(-c4ccc(S(C)=O)cc4)n3)nc2c1 (centres undefined),266 to 267

row,Compound,melting point [°C]
1,O=C(Nc1ccc(CN2C(=O)C3CCCC3N(C(=O)CN3C(=O)c4ccccc4C3=O)c3ccccc32)cc1)c1ccc2ccccc2c1 (centres undefined),191 to 194
2,Cc1ccc(N=C(Nc2ccc(C)cc2)ON2C(C)(C)CC(OC(=O)c3ccccc3)CC2(C)C)cc1,124 to 128
3,CC(O)=C(C#N)CC(=O)Nc1ccc(OCCCI)cc1,149
4,CCCN1CC(=O)C(C(=O)OCC)C1=O (centres undefined),123 to 125
5,O=C(O)COc1ccc(-c2c3ccccc3cc3sc4ccccc4c23)cc1,221 to 223
6,CCCn1cnc2c1c(=O)n(CCCCCCOc1ccc(OC)cc1)c(=O)n2C,56 to 67
7,CCOC(=O)C(C)(C)c1ccc2c(c1)Nc1ccccc1S2,96 to 99
8,COC(=O)n1cc2c(c1)C(OC(C)=O)N=C(c1ccccc1Cl)c1cc(Cl)ccc1-2 (centres undefined),175 to 177
9,OCc1cc(Nc2nc(-c3ccccc3)nc3ccccc23)[nH]n1,238 to 239
10,COc1ccc(-c2nnc(NC3CCN(Cc4ccccc4)CC3)c3cc(OC)cc(OC)c23)cc1,168
11,Nc1c(F)c(N2C[C@H](CF)[C@H](N)C2)c(F)c2c1c(=O)c(C(=O)O)cn2C1CC1 (relative stereo),248 to 249
12,O=c1c2ccccc2cc2n1CCCCC2,99 to 101
13,COc1cc(F)cc(-c2ccc3c(c2)C(C)(C)OC(=O)N3)c1,181 to 182
14,CS(=O)(=O)CC(O)(Cn1cncn1)C(F)(F)C(F)(F)C(F)(F)C(F)(F)F (centres undefined),106 to 109
15,COC(=O)c1cc(O)c2cc[nH]c2c1,160 to 162
16,O=C(O)CCc1oc(-c2ccc3c(c2)OCO3)nc1-c1ccc(Cl)cc1,199 to 200
17,COC(=S)Cc1ccc(C(=O)CN2CCN(c3ccncc3)CC2)cc1,109 to 110
18,COc1ccc(C2=NN(c3ccc(OCc4ccccc4)cc3)C(=O)[C@@H]3CC=CC[C@H]23)cc1OC,104 to 105
19,CCCn1c(=S)c2[nH]c(C(C)C)nc2n(CCC)c1=O,133 to 134
20,CCCCOC(=O)NCCc1ccc(OCC(O)CNC(C)C)nc1 (centres undefined),93 to 95
21,O=C(O)c1c[nH]c(Cl)c1,175 to 178
22,CN1CCC(Sc2cc3c(cc2Cl)[nH]c(=O)n3C)CC1,210 to 212
23,CC1(C)Cc2ccccc2C1c1cnccc1C(=O)O (centres undefined),254 to 257
24,CC(C)(C)NCC(O)COc1ccc2nc(S(N)(=O)=O)sc2c1 (centres undefined),195 to 196
